Experimental data: article PMC2180168 (BMC Pharmacology, 2007)

How the values were obtained:
[1] = tested on: anaplastic large cell lymphoma with NPM-ALK fusion protein cell lines; set-up: method as in PMID 11532349; details: cited from earlier work
[2] = tested on: Hodgkin lymphoma cell lines; set-up: method as in PMID 11953894; details: cited from earlier work
[3] = tested on: multiple myeloma cell line; details: cited from earlier work
[4] = tested on: refractory/relapsed myeloma; details: patients with refractory/relapsed myeloma; cited from earlier work
[5] = in vivo; details: CD1, mouse, plasma, ip

| Compound | effect in anaplastic large cell lymphoma cell lines [1] | effect in Hodgkin lymphoma cell lines [2] | in vitro antiproliferative effect on a multiple myeloma cell line [3] | response in phase II trial [4] | AUC(0-t) ([5]; 12 mg/kg/d) | AUC(0-t) ([5]; 12 mg/kg/day) | half-life ([5]; 12 mg/kg/day) |
| --- | --- | --- | --- | --- | --- | --- | --- |
| Cc1ccc(NC(=O)c2ccc(CN3CCN(C)CC3)cc2)cc1Nc1nccc(-c2cccnc2)n1 [imatinib] | minimal effect | minimal effect | antiproliferative effect | no response | – | – | – |
| COc1cc([C@@H]2c3cc4c(cc3[C@@H](O[C@@H]3O[C@@H]5CO[C@@H](C)O[C@H]5[C@H](O)[C@H]3O)[C@H]3COC(=O)[C@H]23)OCO4)cc(OC)c1O [etoposide] | – | – | – | – | 17900 ng·h/mL | 20000 ng·h/mL | 14.4 min |
